{"source": "patent US7709223B2", "about": "“Method for detecting bacteria with chromogenic substrates for β-D-ribofuranosidase” (priority 2001, dated 2010)", "experiment_in_all_cases": "Hydrolysis on Columbia agar with ferric ammonium citrate", "type_in_all_cases": "cell-based", "key": {"[1]": {"tested_on": "staphylococci", "settings": "all of the staphylococci", "experimental": "(§1) The chromogenic β-D-ribofuranoside substrate was added to Columbia agar at a substrate concentration of 300 mg/l. Ferric ammonium citrate was included at 500 mg/l. All ingredients were autoclaved at 116° C. for 20 minutes to ensure sterilisation. Agar plates were then prepared in 90 mm petri dishes. The substrate caused a yellow colouration of the agar.\n(§2) For each strain tested, a bacterial suspension was prepared in sterile deionised water at an inoculum of approximately 1.5×10^8 colony forming units per ml. This was achieved using a densitometer. 1 μl of each bacterial suspension was then inoculated onto each plate using a multipoint inoculator. Strains were inoculated in parallel onto Columbia agar containing ferric ammonium citrate with no substrate (negative control).\n(§3) After 18 hours incubation, strains were examined visually for the presence of colour. Any strains producing a black colouration on substrate containing media but not on the negative control plates were deemed to be hydrolysing the substrate."}, "[2]": {"tested_on": "P. aeruginosa", "experimental": "as §1, §2, §3"}, "[3]": {"tested_on": "A. calcoaceticus", "settings": "A. calcoaceticus ATCC 7844", "experimental": "as §1, §2, §3"}, "[4]": {"tested_on": "Streptococcus salivarius", "settings": "Streptococcus salivarius NCTC 8618", "experimental": "as §1, §2, §3"}, "[5]": {"tested_on": "Haemolytic streptococcus A", "experimental": "as §1, §2, §3"}, "[6]": {"tested_on": "P. vulgaris", "experimental": "as §1, §2, §3"}, "[7]": {"tested_on": "Vibrio cholerae", "experimental": "as §1, §2, §3"}, "[8]": {"tested_on": "Vibrio cincinnatiensis", "settings": "Vibrio cincinnatiensis NCTC 12012", "experimental": "as §1, §2, §3"}, "[9]": {"tested_on": "Streptococcus oralis", "settings": "Streptococcus oralis NCTC11427", "experimental": "as §1, §2, §3"}, "[10]": {"tested_on": "Providencia alcalifaciens", "experimental": "as §1, §2, §3"}, "[11]": {"tested_on": "enterococci", "settings": "enterococci (‘faecal streptococci’)", "experimental": "as §1, §2, §3"}, "[12]": {"tested_on": "Streptococcus constellatus", "settings": "Streptococcus constellatus NCTC 11325", "experimental": "as §1, §2, §3"}, "[13]": {"tested_on": "Bacillus licusniforms", "settings": "Bacillus licusniforms NCIMB 9375", "experimental": "as §1, §2, §3"}, "[14]": {"tested_on": "Enterococcus durans", "settings": "Enterococcus durans NCTC 8307", "experimental": "as §1, §2, §3"}, "[15]": {"tested_on": "Streptococcus sanguis", "settings": "Streptococcus sanguis NCTC 7863", "experimental": "as §1, §2, §3"}, "[16]": {"tested_on": "Shigella genus", "experimental": "as §1, §2, §3"}, "[17]": {"tested_on": "Enterococcus mundtii", "settings": "Enterococcus mundtii NCTC 12363", "experimental": "as §1, §2, §3"}, "[18]": {"tested_on": "Listeria innocua", "settings": "Listeria innocua PHLS wild", "experimental": "as §1, §2, §3"}, "[19]": {"tested_on": "Y. enterocolitica", "experimental": "as §1, §2, §3"}, "[20]": {"tested_on": "Providencia stuartii", "experimental": "as §1, §2, §3"}, "[21]": {"tested_on": "Bacillus cereus", "settings": "Bacillus cereus NCTC", "experimental": "as §1, §2, §3"}, "[22]": {"tested_on": "Streptococcus gordonii", "settings": "Streptococcus gordonii NCTC 7865", "experimental": "as §1, §2, §3"}, "[23]": {"tested_on": "P. penneri", "settings": "P. penneri PPE 1", "experimental": "as §1, §2, §3"}, "[24]": {"tested_on": "Vibrio alcaligenes", "settings": "Vibrio alcaligenes NCTC 12160", "experimental": "as §1, §2, §3"}, "[25]": {"tested_on": "A. baumanii", "settings": "A. baumanii ATCC 19606", "experimental": "as §1, §2, §3"}, "[26]": {"tested_on": "Vibrio furnissii", "settings": "Vibrio furnissii NCTC 11218", "experimental": "as §1, §2, §3"}, "[27]": {"tested_on": "Staphylococcus epidermidis", "experimental": "as §1, §2, §3"}, "[28]": {"tested_on": "Vibrio hollisae", "settings": "Vibrio hollisae NCTC 11640", "experimental": "as §1, §2, §3"}, "[29]": {"tested_on": "Enterococcus faecalis", "experimental": "as §1, §2, §3"}, "[30]": {"tested_on": "Haemolytic streptococcus C", "experimental": "as §1, §2, §3"}, "[31]": {"tested_on": "Streptococcus crista", "settings": "Streptococcus crista NCTC 12479", "experimental": "as §1, §2, §3"}, "[32]": {"tested_on": "P. mirabilis", "experimental": "as §1, §2, §3"}, "[33]": {"tested_on": "Streptococcus vestibularis", "settings": "Streptococcus vestibularis NCTC 12166", "experimental": "as §1, §2, §3"}, "[34]": {"tested_on": "P. rettgeri", "settings": "P. rettgeri NCTC 7475", "experimental": "as §1, §2, §3"}}, "note": "Structures can show the parent of a compound that is named as a salt.", "data": [{"smiles": "O=c1cc(-c2ccc(OC3OC(CO)C(O)C3O)c(O)c2)oc2ccccc12", "note": "[DHF-riboside, 3′,4′-Dihydroxyflavone-4′-β-D-ribofuranoside sodium salt]", "values": [{"measurement": "Activity with the substrate", "setting": "[1]", "result": "positive"}, {"measurement": "β-Riboside (hydrolysis)", "setting": "[2]; P. aeruginosa ATCC 10145", "result": "+"}, {"measurement": "β-Riboside (hydrolysis)", "setting": "[2]; P. aeruginosa NCTC 10662", "result": "+"}, {"measurement": "β-Riboside (hydrolysis)", "setting": "[3]", "result": "−"}, {"measurement": "β-Ribofuranoside (hydrolysis)", "setting": "[4]", "result": "−"}, {"measurement": "β-Ribofuranoside (hydrolysis)", "setting": "[5]; Reference No. 1", "result": "−"}, {"measurement": "β-Ribofuranoside (hydrolysis)", "setting": "[5]; Reference No. 2", "result": "−"}, {"measurement": "β-Ribofuranoside (hydrolysis)", "setting": "[5]; Reference No. 3", "result": "−"}, {"measurement": "β-Riboside (hydrolysis)", "setting": "[6]; P. vulgaris PVU 2", "result": "−"}, {"measurement": "β-Riboside (hydrolysis)", "setting": "[6]; P. vulgaris PVU 4", "result": "−"}, {"measurement": "β-Riboside (hydrolysis)", "setting": "[6]; P. vulgaris PVU 5", "result": "−"}, {"measurement": "β-Riboside (hydrolysis)", "setting": "[7]; Vibrio cholera NCTC 6585", "result": "−"}, {"measurement": "β-Riboside (hydrolysis)", "setting": "[7]; Vibrio cholera NCTC 7270", "result": "−"}, {"measurement": "β-Riboside (hydrolysis)", "setting": "[7]; Vibrio cholera NCTC 8021", "result": "−"}, {"measurement": "β-Riboside (hydrolysis)", "setting": "[7]; Vibrio cholera NCTC 10732", "result": "−"}, {"measurement": "β-Riboside (hydrolysis)", "setting": "[7]; Vibrio cholera NCTC 12945", "result": "−"}, {"measurement": "β-Riboside (hydrolysis)", "setting": "[7]; Vibrio cholerae NCTC 7254", "result": "−"}, {"measurement": "β-Riboside (hydrolysis)", "setting": "[7]; Vibrio cholerae NCTC 8042", "result": "−"}, {"measurement": "β-Riboside (hydrolysis)", "setting": "[7]; Vibrio cholerae NCTC 10255", "result": "−"}, {"measurement": "β-Riboside (hydrolysis)", "setting": "[7]; Vibrio cholerae NCTC 10954", "result": "−"}, {"measurement": "β-Riboside (hydrolysis)", "setting": "[8]", "result": "−"}, {"measurement": "β-Ribofuranoside (hydrolysis)", "setting": "[9]", "result": "−"}, {"measurement": "β-Riboside (hydrolysis)", "setting": "[10]; Providencia alcalifaciens PAL 1", "result": "+"}, {"measurement": "β-Riboside (hydrolysis)", "setting": "[10]; Providencia alcalifaciens PAL 2", "result": "−"}, {"measurement": "Activity with the substrate", "setting": "[11]", "result": "variable"}, {"measurement": "β-Ribofuranoside (hydrolysis)", "setting": "[12]", "result": "−"}, {"measurement": "β-Ribofuranoside (hydrolysis)", "setting": "[13]", "result": "−"}, {"measurement": "β-Ribofuranoside (hydrolysis)", "setting": "[14]", "result": "−"}, {"measurement": "β-Ribofuranoside (hydrolysis)", "setting": "[15]", "result": "−"}, {"measurement": "β-D-ribofuranosidase activity", "setting": "[16]", "result": "uniformly positive"}, {"measurement": "β-Ribofuranoside (hydrolysis)", "setting": "[17]", "result": "+"}, {"measurement": "β-Ribofuranoside (hydrolysis)", "setting": "[18]", "result": "−"}, {"measurement": "β-Riboside (hydrolysis)", "setting": "[19]; Y. enterocolitica NCTC 10460", "result": "−"}, {"measurement": "β-Riboside (hydrolysis)", "setting": "[19]; Y. enterocolitica NCTC 11176", "result": "−"}, {"measurement": "β-Riboside (hydrolysis)", "setting": "[19]; Y. enterocolitica NCTC 11177", "result": "−"}, {"measurement": "β-Riboside (hydrolysis)", "setting": "[19]; Y. enterocolitica NCTC 11600", "result": "−"}, {"measurement": "β-Riboside (hydrolysis)", "setting": "[20]; Providencia stuartii PST 1", "result": "+"}, {"measurement": "β-Riboside (hydrolysis)", "setting": "[20]; Providencia stuartii PST 2", "result": "+"}, {"measurement": "β-Ribofuranoside (hydrolysis)", "setting": "[21]", "result": "−"}, {"measurement": "β-Ribofuranoside (hydrolysis)", "setting": "[22]", "result": "−"}, {"measurement": "β-Riboside (hydrolysis)", "setting": "[23]", "result": "−"}, {"measurement": "β-Riboside (hydrolysis)", "setting": "[24]", "result": "−"}, {"measurement": "β-Riboside (hydrolysis)", "setting": "[25]", "result": "−"}, {"measurement": "β-Riboside (hydrolysis)", "setting": "[26]", "result": "−"}, {"measurement": "β-Ribofuranoside (hydrolysis)", "setting": "[27]; Staphylococcus epidermidis RB60", "result": "++"}, {"measurement": "β-Ribofuranoside (hydrolysis)", "setting": "[27]; Staphylococcus epidermidis RB62", "result": "+"}, {"measurement": "β-Ribofuranoside (hydrolysis)", "setting": "[27]; Staphylococcus epidermidis RB63", "result": "+"}, {"measurement": "β-Ribofuranoside (hydrolysis)", "setting": "[27]; Staphylococcus epidermidis RB64", "result": "+"}, {"measurement": "β-Ribofuranoside (hydrolysis)", "setting": "[27]; Staphylococcus epidermidis RB65", "result": "+"}, {"measurement": "β-Riboside (hydrolysis)", "setting": "[28]", "result": "−"}, {"measurement": "β-Ribofuranoside (hydrolysis)", "setting": "[29]; Reference No. 1", "result": "−"}, {"measurement": "β-Ribofuranoside (hydrolysis)", "setting": "[29]; Reference No. 2", "result": "+"}, {"measurement": "β-Ribofuranoside (hydrolysis)", "setting": "[29]; Reference No. 3", "result": "+"}, {"measurement": "β-Ribofuranoside (hydrolysis)", "setting": "[29]; Reference No. 4", "result": "+"}, {"measurement": "β-Ribofuranoside (hydrolysis)", "setting": "[29]; Reference No. 5", "result": "+"}, {"measurement": "β-Ribofuranoside (hydrolysis)", "setting": "[29]; Reference No. 6", "result": "+"}, {"measurement": "β-Ribofuranoside (hydrolysis)", "setting": "[29]; Reference No. 7", "result": "−"}, {"measurement": "β-Ribofuranoside (hydrolysis)", "setting": "[30]; Reference No. 1", "result": "−"}, {"measurement": "β-Ribofuranoside (hydrolysis)", "setting": "[30]; Reference No. 67736", "result": "−"}, {"measurement": "β-Ribofuranoside (hydrolysis)", "setting": "[30]; Reference No. 68350", "result": "−"}, {"measurement": "β-Ribofuranoside (hydrolysis)", "setting": "[31]", "result": "−"}, {"measurement": "β-Riboside (hydrolysis)", "setting": "[32]; P. mirabilis NCTC 10975", "result": "−"}, {"measurement": "β-Riboside (hydrolysis)", "setting": "[32]; P. mirabilis PMI 1", "result": "−"}, {"measurement": "β-Riboside (hydrolysis)", "setting": "[32]; P. mirabilis PMI 2", "result": "−"}, {"measurement": "β-Ribofuranoside (hydrolysis)", "setting": "[33]", "result": "−"}, {"measurement": "β-Riboside (hydrolysis)", "setting": "[34]", "result": "+"}]}]}
